Test results as given in patent publication EP0787493A1, “Tetrahydroisoquinoline derivatives” (priority 1996, dated 1997).
Read-outs that look alike come from different tables or passages of the source.

Experiments:
[1] = target: NMDA receptors; experiment: 3H-MK801 (Dizocilpine) binding in vitro; details: rat whole brain membranes, 5nM 3H-MK-801, glutamate, glycine and spermidine present
Experimental: 3H-MK801 (Dizocilpine) binding in vitro
The whole brain from 150-200g male rats, without cerebellum and without medulla oblongata was dissected on ice. The tissue was then homogenized with an Ultra-Turrax maximum speed during 30 seconds at 4°C in 50 volumes of cold Tris HCI 50mM, EDTA disodium 10mM, pH=7.4 buffer (wet weight/v). The homogenate was centrifuged at 48'000 x g (20'000 rpm, SS34, Sorvall RC5C) for 10 minutes. The pellet was rehomogenized with the same volume of buffer and the homogenate incubated at 37°C for 10 minutes. After centrifugation as above, the pellet was rehomogenized with the same volume of buffer and frozen at -80°C in 35 ml fractions for at least 16 hours and not more than 2 weeks.
For the binding experiment, the homogenate was centrifuged as above and the pellet was washed 3 times by homogenization in 25 volumes of cold Tris HCl 5mM, pH=7.4 buffer (Ultra-Turrax, maximum speed, 30 seconds) and centrifugation as above. The final pellet was rehomogenized in 25 volumes of buffer (original wet weight) and used as such in the assay. The final concentration of membrane in the assay was 20mg/ml (wet weight).
The incubation was performed in the presence of 1nM glutamate, glycine and spermidine. MK-801, (+)-[3-3H(N)], NEN (NET-972) 20Ci/mmol, was used at 5nM final concentration. Non specific binding was determined in presence of […] TCP. After 2 hours of incubation at room temperature, the suspension was filtered (Whatmann GF/B, soaked in 0.1% polyethylenimine for 2 hours) and washed 5 times with 3 ml of cold Tris HCl 5mM, pH=7.4 buffer. The air-dried filters were counted with 10ml of Ultima-gold (Packard) in a Tri-Carb 2500 TR scintillation counter after agitation.
The DPM were transformed in % of specific binding and these values were treated by a non linear regression calculation program (BINDING, H. Affolter, Switzerland) which provided the IC50 values for the low and high affinity binding sites (= concentrations producing half maximal inhibition at the respective sites). Each experiment was repeated at least three times and the final IC50 values were calculated as the mean +/-standard deviation of the individual experiments.
Reference: R.W. Ransom and N.L. Stec. Journal of Neurochemistry 51, 830-836, 1988.

[2] = target: T1, NMDAR1C - NMDAR2A (Rattus norvegicus, UniProt P35439+Q00959); experiment: Electrophysiology on recombinant NMDA receptors expressed in oocytes; assay type: cell-based; details: Xenopus laevis oocytes, voltage clamp -80 mV; 70 µM Asp plus 2.5 µM Gly; read-out: Electrophysiology/IC50 (µM) oocytes NMDAR 1C & 2A
T1 construct: expressed in transfected cells; host or cells: Xenopus laevis oocytes injected with in vitro transcribed mRNA (1:1 mixture)
T1 sequence (Q00959 23-1464, other chains not shown): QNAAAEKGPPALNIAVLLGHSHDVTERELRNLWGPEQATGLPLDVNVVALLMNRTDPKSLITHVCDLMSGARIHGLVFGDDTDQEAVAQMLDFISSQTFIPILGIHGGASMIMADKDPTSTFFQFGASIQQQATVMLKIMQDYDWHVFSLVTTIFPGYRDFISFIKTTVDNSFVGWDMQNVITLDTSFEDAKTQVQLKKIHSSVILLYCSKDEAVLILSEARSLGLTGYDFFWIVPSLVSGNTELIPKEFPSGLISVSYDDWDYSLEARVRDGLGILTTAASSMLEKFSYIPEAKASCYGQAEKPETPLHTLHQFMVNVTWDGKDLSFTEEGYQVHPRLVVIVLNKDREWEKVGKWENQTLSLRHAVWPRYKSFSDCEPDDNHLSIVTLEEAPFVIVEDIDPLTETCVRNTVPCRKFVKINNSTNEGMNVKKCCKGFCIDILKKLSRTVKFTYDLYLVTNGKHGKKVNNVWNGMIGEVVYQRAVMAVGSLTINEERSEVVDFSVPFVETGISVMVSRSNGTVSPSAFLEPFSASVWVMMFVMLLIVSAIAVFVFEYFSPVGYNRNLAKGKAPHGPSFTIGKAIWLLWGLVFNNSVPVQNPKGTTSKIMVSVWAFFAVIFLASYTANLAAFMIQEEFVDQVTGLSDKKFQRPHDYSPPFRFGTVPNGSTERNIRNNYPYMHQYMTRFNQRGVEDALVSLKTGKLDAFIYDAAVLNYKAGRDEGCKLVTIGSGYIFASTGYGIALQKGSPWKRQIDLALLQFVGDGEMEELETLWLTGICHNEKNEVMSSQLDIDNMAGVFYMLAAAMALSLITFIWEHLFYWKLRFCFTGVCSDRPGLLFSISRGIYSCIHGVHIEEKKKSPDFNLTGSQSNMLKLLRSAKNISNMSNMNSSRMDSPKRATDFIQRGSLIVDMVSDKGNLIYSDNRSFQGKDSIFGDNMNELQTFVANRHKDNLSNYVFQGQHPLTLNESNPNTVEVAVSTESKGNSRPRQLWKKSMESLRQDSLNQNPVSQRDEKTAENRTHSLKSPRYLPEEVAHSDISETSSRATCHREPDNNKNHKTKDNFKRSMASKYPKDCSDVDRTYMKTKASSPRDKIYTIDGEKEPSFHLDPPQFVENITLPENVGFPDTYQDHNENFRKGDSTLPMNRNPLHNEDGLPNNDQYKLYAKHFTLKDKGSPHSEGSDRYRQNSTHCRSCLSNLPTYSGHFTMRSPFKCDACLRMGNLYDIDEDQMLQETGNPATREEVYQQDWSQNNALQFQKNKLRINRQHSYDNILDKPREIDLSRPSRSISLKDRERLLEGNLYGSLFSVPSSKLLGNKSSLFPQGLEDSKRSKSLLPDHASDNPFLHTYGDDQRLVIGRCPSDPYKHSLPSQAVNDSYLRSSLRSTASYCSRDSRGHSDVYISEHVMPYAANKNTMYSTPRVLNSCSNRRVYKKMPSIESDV
Text: (§1) Electrophysiology on recombinant NMDA receptors.
(§2) cDNA clones coding for the subunits NMDAR1C and NMDAR2A of the NMDA receptor (see Hollmann and Heinemann, 1994, Annu. Rev. Neurosci. 17: 31 for nomenclature of NMDA receptor subunits) were isolated from a rat brain λgt11 cDNA library as published elsewhere (Sigel et al., 1994, J. Biol. Chem. 269:8204). The clone for the subunit NMDAR2B of the rat brain NMDA receptor was obtained from S.Nakanishi (Kyoto, Japan). The cDNAs were transcribed, capped and poly(A^+)-tailed as described previously (Malherbe et al., 1990, Mol. Brain Res. 8: 199). Oocytes of South African frogs (Xenopus laevis) were used for expressing either a combination of the NMDAR1C and NMDAR2A subunits or the NMDAR1C and NMDAR2B subunits. Approximately 3 fmol of a 1:1 mixture of the respective mRNA species were injected into every oocyte. Four to five days later the ion current through the NMDA receptor channels was measured in voltage clamp experiments (see Methfessel et al., 1986, Pflügers Arch. 407: 577 for the methods of oocyte expression and voltage-clamping). The membrane potential was clamped to -80 mV and the receptors were activated by applying a modified Ringer's solution containing the agonists L-asparatate (Asp) and glycine (Gly). Different agonist concentrations were chosen for either subunit combination to account for the different agonist sensitivities of the two types of receptors (70 µM Asp plus 2.5 µM Gly for NMDAR1C - NMDAR2A and 15 µM Asp plus 0.2 µM Gly for NMDAR1C - NMDAR2B). The agonists were applied for 15 s intervals once every 2.5 min by rapid superfusion of the oocyte. After a series of initial control stimuli increasing concentrations of the antagonist to be tested were added to both, the basal Ringer's and the agonist containing solution. For the data analysis the amplitude (y) of the agonist-induced current was plotted versus the concentration (x) of the antagonist and the logistic function y =A/[1 +(x/IC50)^H ] [formula] was fitted to the data to estimate the 50 % inhibitory concentration (IC50). Three to six oocytes were tested for every antagonist and if possible, at least 3 concentrations embracing the IC50 were applied to every oocyte. […] In two other cases a concentration of 0.1 µM produced a slowly increasing block which exceeded 50% after 30 min. […] Figures for the IC50 in all other cases are arithmetic mean values of individual IC50s determined by the logistic curve fits.

[3] = target: T2, NMDAR1C - NMDAR2B (Rattus norvegicus, UniProt P35439+Q00960); experiment: as above; assay type: cell-based; details: Xenopus laevis oocytes, voltage clamp -80 mV; 15 µM Asp plus 0.2 µM Gly; read-out: Electrophysiology/IC50 (µM) oocytes NMDAR 1C & 2B
T2 construct: expressed in transfected cells; host or cells: Xenopus laevis oocytes injected with in vitro transcribed mRNA (1:1 mixture)
T2 sequence (Q00960 27-1482, other chains not shown): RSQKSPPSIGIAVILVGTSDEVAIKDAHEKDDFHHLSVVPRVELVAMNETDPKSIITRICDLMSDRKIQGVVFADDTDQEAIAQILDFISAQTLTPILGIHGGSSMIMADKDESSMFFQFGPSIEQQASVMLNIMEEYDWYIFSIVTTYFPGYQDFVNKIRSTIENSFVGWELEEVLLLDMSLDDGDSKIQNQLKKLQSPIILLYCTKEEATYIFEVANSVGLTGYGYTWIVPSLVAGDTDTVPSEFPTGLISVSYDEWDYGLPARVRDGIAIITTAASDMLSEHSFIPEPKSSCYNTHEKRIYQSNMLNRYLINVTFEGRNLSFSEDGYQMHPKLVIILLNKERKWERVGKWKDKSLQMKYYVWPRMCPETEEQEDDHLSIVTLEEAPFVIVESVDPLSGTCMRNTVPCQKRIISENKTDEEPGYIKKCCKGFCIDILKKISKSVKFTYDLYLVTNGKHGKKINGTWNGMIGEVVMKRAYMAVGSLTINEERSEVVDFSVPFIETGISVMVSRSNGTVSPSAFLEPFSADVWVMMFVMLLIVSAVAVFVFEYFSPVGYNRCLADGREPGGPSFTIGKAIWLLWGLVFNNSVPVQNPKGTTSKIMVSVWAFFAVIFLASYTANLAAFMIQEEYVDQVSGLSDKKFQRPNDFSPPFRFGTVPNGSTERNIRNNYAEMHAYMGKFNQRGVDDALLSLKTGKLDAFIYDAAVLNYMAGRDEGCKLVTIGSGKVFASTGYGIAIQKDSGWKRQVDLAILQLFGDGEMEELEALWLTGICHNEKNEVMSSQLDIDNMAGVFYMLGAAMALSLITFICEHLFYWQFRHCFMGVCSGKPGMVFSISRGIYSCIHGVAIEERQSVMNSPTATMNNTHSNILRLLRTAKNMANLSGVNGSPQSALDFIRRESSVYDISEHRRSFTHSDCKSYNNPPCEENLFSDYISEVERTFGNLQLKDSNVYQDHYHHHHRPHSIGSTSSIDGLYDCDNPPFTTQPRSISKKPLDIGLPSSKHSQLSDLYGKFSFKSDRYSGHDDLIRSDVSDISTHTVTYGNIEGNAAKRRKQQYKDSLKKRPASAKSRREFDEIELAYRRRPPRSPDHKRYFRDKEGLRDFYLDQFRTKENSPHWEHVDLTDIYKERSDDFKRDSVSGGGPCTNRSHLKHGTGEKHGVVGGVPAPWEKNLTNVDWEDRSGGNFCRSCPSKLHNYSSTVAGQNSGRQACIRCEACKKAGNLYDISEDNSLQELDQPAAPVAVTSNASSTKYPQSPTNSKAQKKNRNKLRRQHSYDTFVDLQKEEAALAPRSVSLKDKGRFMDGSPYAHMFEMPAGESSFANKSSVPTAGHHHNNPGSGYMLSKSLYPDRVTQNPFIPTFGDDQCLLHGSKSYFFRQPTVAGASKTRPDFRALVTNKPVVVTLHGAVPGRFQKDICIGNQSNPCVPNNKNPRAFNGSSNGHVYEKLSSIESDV
Text: as §1, §2

[4] = high affinity binding site, read-out: 3H-MK 801 / IC50 (µM) high
[5] = low affinity binding site, read-out: 3H-MK 801 / IC50 (µM) low

| Compound | IC50 [1, 4] | IC50 [1, 5] | IC50 [2] | IC50 [3] |
| --- | --- | --- | --- | --- |
| COc1cc2c(cc1OC)C(CC(O)c1ccc(Cl)cc1)N(C)CC2 (single isomer, unassigned) [C, 1-(4-Chloro-phenyl)-2-(6,7-dimethoxy-2-methyl-1,2,3,4-tetrahydroisoquinolin-1-yl)-ethanol] | 0.12 µM | 191 µM | > 20 µM | 0.043 µM |
| COc1cc2c(cc1OC)C(CCc1ccc(Cl)c(Cl)c1)N(C)CC2 (stereo not shown) [AA] | 4.62 µM | 185 µM |  |  |
| COc1cc2c(cc1O)C(CCc1ccc(Cl)cc1)N(C)CC2 (stereo not shown) [B, 1-[2-(4-Chloro-phenyl)-ethyl]-6-methoxy-2-methyl-1,2,3,4-tetrahydroisoquinolin-7-ol] | 0.09 µM | 54 µM |  |  |
| CN1CCc2cc(O)c(O)cc2C1CCc1ccc(Cl)cc1 (stereo not shown) [D, 1-[2-(4-Chloro-phenyl)-ethyl] -2-methyl-1,2,3,4-tetrahydro-isoquinoline-6,7-diol] | 0.29 µM | 116 µM | 19 µM | 0.28 µM |
| COc1cc2c(cc1OC)C(CCc1ccc(C)cc1)N(C)CC2 (stereo not shown) [E, 6,7-Dimethoxy-2-methyl-1-(2-p-tolyl-ethyl)-1,2,3,4-tetrahydroisoquinoline] | 0.34 µM | 129 µM |  |  |
| COc1cc2c(cc1OC)C(CCc1ccc(Cl)cc1)N(C)C1CCCCC21 (stereo not shown) [F, 6-[2-(4-Chloro-phenyl)-ethyl]-8,9-dimethoxy-5-methyl-1,2,3,4,4a,5,6,10b-octahydro-phenanthridine] | 0.4 µM | 315 µM | > 30 µM | < 0.1 µM |
| COc1cc2c(cc1OC)C1CCCCC1NC2CCc1ccc(Cl)cc1 (stereo not shown) [H, 6-[2-(4-Chloro-phenyl)-ethyl]-8,9,dimethoxy-1,2,3,4,4a,5,6,10b-octahydrophenanthridine] | 0.5 µM | 589 µM |  |  |
| COc1ccc(C(O)CC2c3cc(OC)c(OC)cc3CCN2C)cc1 (stereo not shown) [I] | 0.59 µM | 146 µM |  |  |
| COc1cc2c(cc1OC)C(CC(O)c1cc(Cl)c(Cl)cc1Cl)N(C)CC2 (stereo not shown) [K] | 0.91 µM | 613 µM |  |  |
| COc1cc2c(cc1OC)C(CCc1ccc(Br)cc1)N(C)CC2 (stereo not shown) [L] | 1.37 µM | 198 µM |  |  |
| COc1cc2c(cc1OC)C(CCc1ccc([N+](=O)[O-])cc1)N(C)CC2 (stereo not shown) [O] | 1.6 µM | 101 µM |  |  |
| COc1cc2c(cc1OC)C(CC(OC(C)=O)c1ccc(Cl)cc1)N(C)CC2 (stereo not shown) [Q] | 1.76 µM | 161 µM | 21 µM | 1.2 µM |
| CCC(=O)OC(CC1c2cc(OC)c(OC)cc2CCN1C)c1ccc(Cl)cc1 (stereo not shown) [S] | 2.18 µM | 123 µM |  |  |
| COc1cc2c(cc1OC)C(CCc1ccc([N+](=O)[O-])cc1)N(C)CC2 (stereo not shown) [U] | 2.71 µM | 87 µM |  |  |

Results, then the compound that gave them:

| IC50 [1, 4] | IC50 [1, 5] | IC50 [2] | IC50 [3] | Compound |
| --- | --- | --- | --- | --- |
| 2.9 µM | 110 µM |  |  | COc1cc2c(cc1OC)C(CC(O)c1ccc(Cl)cc1)N(C)CC2 (single isomer, unassigned) [V] |
| 0.04 µM | 223 µM | > 100 µM | ≤ 0.1 µM | COc1cc2c(cc1OC)C(CC(O)c1ccc(C)cc1)N(C)CC2 (stereo not shown) [A, 2-(6,7-Dimethoxy-2-methyl-1,2,3,4-tetrahydroisoquinolin-1-yl)-1-p-tolyl-ethanol] |
| 0.46 µM | 87 µM |  |  | COc1cc2c(cc1OC)C(CC(O)c1ccc([N+](=O)[O-])cc1)N(C)CC2 (stereo not shown) [G, 2-(6,7-Dimethoxy-2-methyl-1,2,3,4-tetrahydroisoquinolin-1-yl)-1-(4-nitrophenyl)-ethanol] |
| 1.39 µM | 95 µM |  |  | COc1ccc(CCC2c3cc(OC)c(OC)cc3CCN2C)cc1 (stereo not shown) [M] |
| 1.59 µM | 370 µM |  |  | COc1cc2c(cc1OC)C(CCc1ccc(C(C)C)cc1)N(C)CC2 (stereo not shown) [N] |
| 1.7 µM | 95 µM |  |  | CN1CCc2cc3c(cc2C1CCc1ccc(Cl)cc1)OCO3 (stereo not shown) [P] |
| 2.1 µM | 147 µM |  |  | COc1cc2c(cc1OC)C(CCc1ccccc1)N(C)CC2 (stereo not shown) [R] |
| 2.31 µM | 56 µM |  |  | CN1CCc2cc(O)c(O)cc2C1CCc1ccc(Cl)c(Cl)c1 (stereo not shown) [T] |
| 3.6 µM | 129 µM |  |  | COc1ccc2c(c1OC)CCN(C)C2CCc1ccc(Cl)cc1 (stereo not shown) [W] |
| 3.87 µM | 2230 µM |  |  | Cc1cc2c(cc1C)C(CCc1ccc(Cl)cc1)N(C)C(C)C2 (stereo not shown) [X] |
